Laboratory results as given in ChEMBL document CHEMBL3301562, “MMV Box screening against Plasmodium falciparum protein kinases and aminoacyl tRNA synthetases”.

Experiments:
Format in all cases: functional
[1] = biological target: T1, Cdk-related protein kinase 6 (Plasmodium falciparum, UniProt O77239); test: Final concentrations were 1.5 uM ATP, 5 mM MnCl2, and 15 ug/ml PK6 in a buffer of 100 mM Tris-HCl (pH 7.5). 50 ug/mL MBP was provided as the substrate; 10 uM staurosporine was used as a control inhibitor. Incubation time was 3 hours and 40 minutes.The catalytic activity of each kinase was considered proportional to ATP consumed, as determined from measurements of residual [ATP] with the luciferase-based reagent Kinase-Glo (Promega) following incubation. Luminescence (proportional to residual [ATP]) was measured on the plate readers FLx800 (BioTek Instruments, Winooski, VT, USA) and MicroBeta2.
T1 sequence (O77239 whole entry): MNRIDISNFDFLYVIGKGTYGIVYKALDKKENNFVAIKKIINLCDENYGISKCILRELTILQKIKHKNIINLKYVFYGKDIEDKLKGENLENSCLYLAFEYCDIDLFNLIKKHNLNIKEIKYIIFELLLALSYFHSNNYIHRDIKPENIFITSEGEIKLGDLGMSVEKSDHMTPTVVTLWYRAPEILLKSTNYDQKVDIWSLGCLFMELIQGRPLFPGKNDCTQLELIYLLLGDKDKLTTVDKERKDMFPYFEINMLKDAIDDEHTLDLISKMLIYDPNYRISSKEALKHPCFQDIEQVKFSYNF

[2] = biological target: Lysine--tRNA ligase (Plasmodium falciparum (isolate 3D7), UniProt Q8IDJ8); test: MMV: KRS recombinant Plasmodium falciparum Lysyl-tRNA-synthetase, assay with yeast tRNA, ATP, and lysine and 3 uM MMV malaria box compound, assay read out with kinase glo as % inhibition.
Sequence of Lysine--tRNA ligase (Q8IDJ8 whole entry): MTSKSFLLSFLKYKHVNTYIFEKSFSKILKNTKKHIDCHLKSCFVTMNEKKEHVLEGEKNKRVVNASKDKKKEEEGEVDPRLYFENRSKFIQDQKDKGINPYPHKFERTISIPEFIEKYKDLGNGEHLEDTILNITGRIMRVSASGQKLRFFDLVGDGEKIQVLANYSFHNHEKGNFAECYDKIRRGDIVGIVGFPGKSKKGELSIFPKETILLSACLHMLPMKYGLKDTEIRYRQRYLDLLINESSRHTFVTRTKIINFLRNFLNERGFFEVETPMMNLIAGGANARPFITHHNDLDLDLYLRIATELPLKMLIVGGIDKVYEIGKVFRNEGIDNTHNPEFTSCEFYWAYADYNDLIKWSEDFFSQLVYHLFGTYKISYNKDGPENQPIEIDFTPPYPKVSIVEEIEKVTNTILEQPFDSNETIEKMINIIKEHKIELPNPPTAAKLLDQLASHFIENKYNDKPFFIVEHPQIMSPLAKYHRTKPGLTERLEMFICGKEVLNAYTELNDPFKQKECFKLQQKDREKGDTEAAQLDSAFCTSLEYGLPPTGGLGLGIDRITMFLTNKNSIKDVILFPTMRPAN

[3] = biological target: T2, Calcium-dependent protein kinase 4 (Plasmodium falciparum (isolate 3D7), UniProt Q8IBS5); test: MMV: CDPK4 Protein kinase inhibition assay using recombinant PfCDPK4, syntide2 peptide substrate, ATP and KinaseGlo to measure % inhibition at 1 uM MMV box compound.
T2 sequence (Q8IBS5 whole entry): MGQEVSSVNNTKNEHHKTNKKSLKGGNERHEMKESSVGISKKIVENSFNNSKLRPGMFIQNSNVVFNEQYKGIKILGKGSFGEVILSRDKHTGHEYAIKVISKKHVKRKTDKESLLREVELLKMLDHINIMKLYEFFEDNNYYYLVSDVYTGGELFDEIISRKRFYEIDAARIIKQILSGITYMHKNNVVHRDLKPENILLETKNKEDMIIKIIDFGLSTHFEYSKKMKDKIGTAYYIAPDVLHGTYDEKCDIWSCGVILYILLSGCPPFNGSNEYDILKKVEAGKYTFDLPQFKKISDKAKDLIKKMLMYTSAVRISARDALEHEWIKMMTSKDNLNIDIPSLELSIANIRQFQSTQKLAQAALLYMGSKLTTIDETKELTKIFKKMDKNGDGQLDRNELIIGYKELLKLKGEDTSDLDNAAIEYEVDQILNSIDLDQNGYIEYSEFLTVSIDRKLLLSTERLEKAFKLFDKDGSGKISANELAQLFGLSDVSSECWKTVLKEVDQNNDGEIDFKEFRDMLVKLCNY

[4] = biological target: Calcium-dependent protein kinase 1 (Plasmodium falciparum, UniProt P62344); test: MMV: CDPK1 Protein kinase inhibition assay using recombinant PfCDPK1, syntide 2 peptide substrate, ATP and KinaseGlo to measure % inhibition at 1 uM MMV box compound.
Sequence of Calcium-dependent protein kinase 1 (P62344 whole entry): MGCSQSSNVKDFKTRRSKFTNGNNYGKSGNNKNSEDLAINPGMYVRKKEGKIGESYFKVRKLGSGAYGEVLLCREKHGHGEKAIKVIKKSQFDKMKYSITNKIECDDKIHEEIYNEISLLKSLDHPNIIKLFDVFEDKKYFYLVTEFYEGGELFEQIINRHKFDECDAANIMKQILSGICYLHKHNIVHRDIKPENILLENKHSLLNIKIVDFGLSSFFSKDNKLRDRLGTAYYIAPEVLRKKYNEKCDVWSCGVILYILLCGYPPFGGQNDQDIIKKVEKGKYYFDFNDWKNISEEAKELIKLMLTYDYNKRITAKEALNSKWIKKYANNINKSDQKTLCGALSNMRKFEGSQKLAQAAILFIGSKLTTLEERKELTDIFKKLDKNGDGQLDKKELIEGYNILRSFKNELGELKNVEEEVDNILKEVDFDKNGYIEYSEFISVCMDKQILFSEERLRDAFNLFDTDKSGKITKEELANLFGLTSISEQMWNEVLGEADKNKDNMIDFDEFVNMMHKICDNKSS

[5] = biological target: T3, Putative uncharacterized protein pk7 (Plasmodium falciparum, UniProt O96214); test: Final concentrations were 1 uM ATP, 2 mM DTT, 20 mM MgCl2, 2 mM MnCl2, 0.01% BSA, and 6 ug/ml PK7, in a buffer of 20 mM Tris-HCl (pH 7.5). The enzyme itself was the only substrate present (since autophosphorylation occurs); 100 uM 1NA-PP1 was used as a control inhibitor. Incubation time was 3 hours.
T3 sequence (O96214 whole entry): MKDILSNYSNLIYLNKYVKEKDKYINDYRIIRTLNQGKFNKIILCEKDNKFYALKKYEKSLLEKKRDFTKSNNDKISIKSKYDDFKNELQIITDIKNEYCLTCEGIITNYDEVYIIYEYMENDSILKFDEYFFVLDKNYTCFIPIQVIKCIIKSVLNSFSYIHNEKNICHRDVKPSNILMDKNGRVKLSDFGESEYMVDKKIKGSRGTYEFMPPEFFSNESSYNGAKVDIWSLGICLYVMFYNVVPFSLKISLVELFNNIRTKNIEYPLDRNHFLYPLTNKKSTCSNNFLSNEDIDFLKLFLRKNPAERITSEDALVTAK

[6] = biological target: T4, Proline--tRNA ligase (Plasmodium falciparum (isolate 3D7), UniProt Q8I5R7); test: MMV: ProRS recombinant Plasmodium falciparum Prolyl-tRNA-synthetase, assay with yeast tRNA, ATP, and proline and 3 uM MMV malaria box compound, assay read out with kinase glo as % inhibition.
T4 sequence (Q8I5R7 whole entry): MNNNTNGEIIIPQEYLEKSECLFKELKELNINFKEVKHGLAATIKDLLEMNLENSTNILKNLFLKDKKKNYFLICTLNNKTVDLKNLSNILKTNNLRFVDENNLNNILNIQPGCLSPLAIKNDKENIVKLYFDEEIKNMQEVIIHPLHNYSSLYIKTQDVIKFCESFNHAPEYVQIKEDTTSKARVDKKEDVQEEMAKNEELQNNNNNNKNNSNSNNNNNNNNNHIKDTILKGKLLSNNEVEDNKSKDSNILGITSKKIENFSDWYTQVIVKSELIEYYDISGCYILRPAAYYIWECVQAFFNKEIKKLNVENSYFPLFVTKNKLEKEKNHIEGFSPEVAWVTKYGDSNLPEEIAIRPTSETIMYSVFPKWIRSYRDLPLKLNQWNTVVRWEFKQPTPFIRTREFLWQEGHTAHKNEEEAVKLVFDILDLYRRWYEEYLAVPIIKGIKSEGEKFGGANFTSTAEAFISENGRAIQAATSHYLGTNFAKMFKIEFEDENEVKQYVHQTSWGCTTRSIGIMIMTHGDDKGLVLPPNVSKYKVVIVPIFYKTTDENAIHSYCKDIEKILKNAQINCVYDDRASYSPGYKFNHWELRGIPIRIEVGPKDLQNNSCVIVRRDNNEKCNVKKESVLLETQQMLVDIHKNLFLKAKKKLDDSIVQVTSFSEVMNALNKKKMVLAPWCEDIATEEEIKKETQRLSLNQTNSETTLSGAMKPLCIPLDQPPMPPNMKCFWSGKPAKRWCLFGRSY

[7] = biological target: T5, Mitogen-activated protein kinase (Plasmodium falciparum, UniProt Q25917); test: Final concentrations were 1 uM ATP, 0.5 mM DTT, 1 mM MgCl2, 0.5 mg/mL BSA, and 10 ug/ml MAP2 in a buffer of 50 mM HEPES (pH 7.0). 0.5 mg/mL histone III-S served as the substrate (13); 100 uM AMP-PNP, an ATP analog, was used as a control inhibitor. Incubation time was 4 hours.
T5 sequence (Q25917 whole entry): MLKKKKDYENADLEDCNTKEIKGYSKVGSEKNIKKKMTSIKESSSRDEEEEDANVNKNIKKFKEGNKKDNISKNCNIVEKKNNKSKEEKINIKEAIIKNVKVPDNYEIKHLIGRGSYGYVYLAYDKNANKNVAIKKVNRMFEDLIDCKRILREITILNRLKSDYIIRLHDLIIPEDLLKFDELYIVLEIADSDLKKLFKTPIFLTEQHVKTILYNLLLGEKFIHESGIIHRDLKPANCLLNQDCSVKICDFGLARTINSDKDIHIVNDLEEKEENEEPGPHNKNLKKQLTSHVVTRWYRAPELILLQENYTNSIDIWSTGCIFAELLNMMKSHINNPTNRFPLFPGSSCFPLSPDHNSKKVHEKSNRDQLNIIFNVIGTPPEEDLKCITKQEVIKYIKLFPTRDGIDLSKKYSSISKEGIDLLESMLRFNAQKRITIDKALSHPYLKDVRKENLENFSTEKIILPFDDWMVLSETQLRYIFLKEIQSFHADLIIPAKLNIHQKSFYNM

SMILES | IC50 [1] | IC50 [2] | IC50 [3] | IC50 [4] | IC50 [5] | IC50 [6] | IC50 [7]
COc1ccc(C2c3ccc4ccccc4c3Oc3ncn(CCCN(C)C)c(=N)c32)cc1 (stereo not given) | > 1000 nM | > 2500 nM | > 1000 nM | > 1000 nM | > 1000 nM | > 2500 nM | > 1000 nM
c1ccc(/C2=N/c3ccccc3/N=C(/c3ccccc3)c3ccccc32)cc1 | > 1000 nM | > 2500 nM | > 1000 nM | > 1000 nM | > 1000 nM | > 2500 nM | > 1000 nM
CCOC(=O)c1c(C)n(-c2ccccc2)c2ccc(OC(=O)c3cc(OC)c(OC)c(OC)c3)cc12 | > 1000 nM | > 2500 nM | > 1000 nM | > 1000 nM | > 1000 nM | > 2500 nM | > 1000 nM
COc1ccc(C2c3ccc4ccccc4c3Oc3ncn(CCCn4ccnc4)c(=N)c32)cc1OC (stereo not given) | > 1000 nM | > 2500 nM | > 1000 nM | > 1000 nM | > 1000 nM | > 2500 nM | > 1000 nM
CN(N=O)C1=C(NC2CCCCC2)C(=O)c2ccccc2C1=O | > 1000 nM | > 2500 nM | > 1000 nM | > 1000 nM | > 1000 nM | > 2500 nM | > 1000 nM
CC(Oc1ccc(NC(=O)c2cccs2)cc1)C(=O)c1ccc(Cl)cc1 (stereo not given) | > 1000 nM | > 2500 nM | > 1000 nM | > 1000 nM | > 1000 nM | > 2500 nM | > 1000 nM
Brc1ccc(Nc2nc3ccccc3nc2Nc2ccc(Br)cc2)cc1 | > 1000 nM | > 2500 nM | > 1000 nM | > 1000 nM | > 1000 nM | > 2500 nM | > 1000 nM
O=C(NC1CCN(Cc2ccccc2)CC1)c1cc(C(=O)NC2CCN(Cc3ccccc3)CC2)cc(C(=O)NC2CCN(Cc3ccccc3)CC2)c1 | > 1000 nM | > 2500 nM | > 1000 nM | > 1000 nM | > 1000 nM | > 2500 nM | > 1000 nM
COc1ccc(-c2cn3c(C(=O)Nc4ccccc4Cl)c(-c4ccccc4)c4c3n2CCCC4)cc1 | > 1000 nM | > 2500 nM | > 1000 nM | > 1000 nM | > 1000 nM | > 2500 nM | > 1000 nM
Cc1cc(Nc2ccc(OCc3ccccc3)cc2)nc2cc(O)ccc12 | > 1000 nM | > 2500 nM | > 1000 nM | > 1000 nM | > 1000 nM | > 2500 nM | > 1000 nM
CCN(CC)CCNc1ccnc2cc3ccccc3cc12 | > 1000 nM | > 2500 nM | > 1000 nM | > 1000 nM | > 1000 nM | > 2500 nM | > 1000 nM
CCOc1cc2c(cc1OCC)C(c1cc(Cl)ccc1O)NCC2 (stereo not given) | > 1000 nM | > 2500 nM | > 1000 nM | > 1000 nM | > 1000 nM | > 2500 nM | > 1000 nM
Cc1ccc(-c2nc3ccccc3o2)cc1NCc1cc(Cc2ccccc2)ccc1O | > 1000 nM | > 2500 nM | > 1000 nM | > 1000 nM | > 1000 nM | > 2500 nM | > 1000 nM
O=C(Cc1ccccc1)NC(c1ccc(Cl)cc1)c1c(O)ccc2ccccc12 (stereo not given) | > 1000 nM | > 2500 nM | > 1000 nM | > 1000 nM | > 1000 nM | > 2500 nM | > 1000 nM
c1ccc(CNc2nc(Nc3ccccc3)nc3ccccc23)cc1 | > 1000 nM | > 2500 nM | > 1000 nM | > 1000 nM | > 1000 nM | > 2500 nM | > 1000 nM
Cc1cccc(N2C(=O)C3C(C2=O)C2(c4ccccc4)C(=O)C3(c3ccccc3)C(c3ccc4c(c3)OCO4)=C2c2ccc3c(c2)OCO3)c1 (stereo not given) | > 1000 nM | > 2500 nM | > 1000 nM | > 1000 nM | > 1000 nM | > 2500 nM | > 1000 nM
COc1ccc2sc(N(Cc3cccnc3)C(=O)c3ccc(C#N)cc3)nc2c1 | > 1000 nM | > 2500 nM | > 1000 nM | > 1000 nM | > 1000 nM | > 2500 nM | > 1000 nM
CC1CC2=C(CC1CNCCCN(C)C)C(C)(C)CCC2 (stereo not given) | > 1000 nM | > 2500 nM | > 1000 nM | > 1000 nM | > 1000 nM | > 2500 nM | > 1000 nM
CN(C)c1ccc(N=Cc2ccc(N3CCOCC3)cc2)cc1 | > 1000 nM | > 2500 nM | > 1000 nM | > 1000 nM | > 1000 nM | > 2500 nM | > 1000 nM
CCCCc1c(CCC)c(=N)c2ccccc2n1C | > 1000 nM | > 2500 nM | > 1000 nM | > 1000 nM | > 1000 nM | > 2500 nM | > 1000 nM
